Assay results: patent US6647980B1, “Method for administration of active substances to the olfactory region” (priority 1997, dated 2003)

Test: Dynamic viscosity, Brookfield Digital Viscometer
Format: physicochemical
Settings: dye preparation
Experimental: The viscosity of the preparations were determined by means of a Brookfield Digital Viscometer, model DV-I+, version 2.0, at 25° after stabilisation for 30 min.

brilliant blue dye
Viscosity (cP) (NaCMC conc. 0 (water)): 1 (water) cP | Viscosity (cP) (NaCMC conc. 0.2 (w/v), with Tween 40 and methyl paraoxybenzoate): 22.0 cP | Viscosity (cP) (NaCMC conc. 0.5 (w/v), with Tween 40 and methyl paraoxybenzoate): 85.2 cP
